What all share (assay type): in vivo
Assay [1] concerns PLCβ4 knock-out mouse. Nature of the assay: Change of SWD after injection of PKC agonist or calcium channel blocker into the thalamus relay nuclei, EEG measurement.
Assay [2] concerns PLCβ4 knock-out mouse. Nature of the assay: SWD reduction by ethosuximide, EEG measurement. The note with it: 200 mg/kg intraperitoneal, EEG recorded 1 hour, starting 30 minutes after injection, compared with NaCl control.
Assay [3] relates to PLCβ4 knock-out mouse. Briefly: Sensitivity to absence seizure inducing agents (GABAB receptor agonists), EEG measurement. The note with it: PLCβ4 knock-out mouse compared with normal mouse.
Where [4] appears, read: 10 pmol injected into thalamus relay nuclei, compared with before / 0.9% NaCl.

With `CCCCCCCCCC(=O)O[C@@H]1[C@@H](C)[C@@]2(O)[C@@H](C=C(CO)C[C@]3(O)C(=O)C(C)=C[C@@H]23)[C@@H]2C(C)(C)[C@]12OC(=O)CCCCCCCCC` [PDD, phorbol 12,13-didecanoate], the “SWD (hourly number) in EEG” value in assay [1] (setting [4]) was “significantly reduced”; in assay [1] (10 pmol injected into thalamus relay nuclei, compared with before / 0.9% NaCl, listed as phorbol 12,13-didecanoate), “reduced”. In the case of `CCCCCCCCCCCCCC(=O)O[C@@H]1[C@@H](C)[C@@]2(O)[C@@H](C=C(CO)C[C@]3(O)C(=O)C(C)=C[C@@H]23)[C@@H]2C(C)(C)[C@]12OC(C)=O` [PMA, phorbol 12-myristate 13-acetate], the “SWD (hourly number) in EEG” value in assay [1] (setting [4]) was “significantly reduced”; in assay [1] (10 pmol injected into thalamus relay nuclei, compared with before / 0.9% NaCl, listed as phorbol 12-myristate 13-acetate) it was “reduced”. Regarding `CCC1(C)CC(=O)NC1=O` (centres unmarked) [ethosuximide], the “SWD (spike-and-wave discharge) in EEG” value in assay [2] is on record as “significantly reduced”. As to `COCC(=O)O[C@]1(CCN(C)CCCc2nc3ccccc3[nH]2)CCc2cc(F)ccc2[C@@H]1C(C)C` [mibefradil], in assay [1] (1 nmol injected into thalamus relay nuclei), the “SWD (hourly number) in EEG” value is recorded as “significantly reduced”. For `O=C1CCCO1` [γ-butyrolactone], the “absence seizure specific SWD” value in assay [3] (after absence seizure inducing drug) was “increased”. Further, the “duration of paroxysmal SWD after drug administration” value in assay [3] (intraperitoneal, γ-butyrolactone 40 or 70 mg/kg, RS(+/−)-baclofen 20 mg/kg) is on record as “continued even longer”.

(Values after patent publication US8313744B2, “Composition for the prevention and treatment of absence seizures comprising PKC agonist as an effective ingredient” (Korea Institute of Science and Technology, priority 2010, dated 2012).)
